# Biological target: T1, Equilibrative nucleoside transporter 1 (Homo sapiens, UniProt Q99808)
# T1 sequence (Q99808 whole entry): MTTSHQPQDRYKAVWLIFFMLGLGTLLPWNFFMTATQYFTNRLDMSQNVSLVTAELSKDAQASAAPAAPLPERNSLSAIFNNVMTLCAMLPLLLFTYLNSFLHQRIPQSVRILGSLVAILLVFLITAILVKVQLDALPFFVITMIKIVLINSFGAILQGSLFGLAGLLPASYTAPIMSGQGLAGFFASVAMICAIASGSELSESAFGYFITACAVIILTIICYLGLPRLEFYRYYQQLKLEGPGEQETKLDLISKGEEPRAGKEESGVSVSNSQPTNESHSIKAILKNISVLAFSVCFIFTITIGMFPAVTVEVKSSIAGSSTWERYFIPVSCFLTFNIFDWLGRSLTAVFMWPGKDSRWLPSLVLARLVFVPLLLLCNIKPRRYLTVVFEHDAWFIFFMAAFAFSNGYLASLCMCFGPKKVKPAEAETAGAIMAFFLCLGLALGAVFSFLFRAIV
# Assay: Binding affinity to ENT1 transporter
row,IC50,Structure (SMILES)
1,195000 nM,OC[C@H]1O[C@@H](n2ccc3c(N4CCCCC4)ncnc32)[C@H](O)[C@@H]1O
2,21400 nM,CC(C)(Sc1ncnc2c1ncn2[C@@H]1O[C@H](CO)[C@@H](O)[C@H]1O)c1ccccc1
3,21.4 nM,Nc1nc(SCc2ccc([N+](=O)[O-])cc2)c2ncn([C@@H]3O[C@H](CO)[C@@H](O)[C@H]3O)c2n1
4,457 nM,Cc1ccc(CSc2ncnc3c2ncn3[C@@H]2O[C@H](CO)[C@@H](O)[C@H]2O)cc1
5,17800 nM,OC[C@H]1O[C@@H](n2cnc3c(NCc4cccs4)ncnc32)[C@H](O)[C@@H]1O
6,5250 nM,Nc1nc(SCc2ccccc2)c2ncn([C@@H]3O[C@H](CO)[C@@H](O)[C@H]3O)c2n1
7,1510 nM,OC[C@H]1O[C@@H](n2cnc3c(CSc4c(F)cccc4Cl)ncnc32)[C@H](O)[C@@H]1O
8,4.79 nM,O=[N+]([O-])c1cccc(SCc2ncnc3c2ncn3[C@@H]2O[C@H](CO)[C@@H](O)[C@H]2O)c1
9,224 nM,OC[C@H]1O[C@@H](n2cnc3c(CSc4ccc(Cl)c(Cl)c4)ncnc32)[C@H](O)[C@@H]1O
10,32400 nM,CCCSc1nc(N)nc2c1ncn2[C@@H]1O[C@H](CO)[C@@H](O)[C@H]1O
11,2090 nM,OC[C@H]1O[C@@H](n2cnc3c(OCc4ccccc4)ncnc32)[C@H](O)[C@@H]1O
12,575000 nM,Cn1cnc([N+](=O)[O-])c1Sc1nc(N)nc2c1ncn2[C@@H]1O[C@H](CO)[C@@H](O)[C@H]1O
13,427 nM,Cc1c(CNc2ncnc3c2ncn3[C@@H]2O[C@H](CO)[C@@H](O)[C@H]2O)cccc1[N+](=O)[O-]
14,14800 nM,Nc1nc(SCc2cccnc2)c2ncn([C@@H]3O[C@H](CO)[C@@H](O)[C@H]3O)c2n1
15,813 nM,Nc1nc(SCc2ccc(Br)cc2)c2ncn([C@@H]3O[C@H](CO)[C@@H](O)[C@H]3O)c2n1
16,31.6 nM,O=[N+]([O-])c1ccc(CNc2ncnc3c2ncn3[C@@H]2O[C@H](CO)[C@@H](O)[C@@H]2O)cc1
17,1170 nM,Cc1ccc(CNc2ncnc3c2ncn3[C@@H]2O[C@H](CO)[C@@H](O)[C@H]2O)cc1[N+](=O)[O-]

row,IC50,Structure (SMILES)
1,1550 nM,OC[C@H]1O[C@@H](n2cnc3c(SCC4CCCCC4)ncnc32)[C@H](O)[C@@H]1O
2,69.2 nM,OC[C@H]1O[C@@H](n2cnc3c(CSc4ccc(I)cc4)ncnc32)[C@H](O)[C@@H]1O
3,100000 nM,c1ccc(CCNc2ncnc3[nH]ncc23)cc1
4,912000 nM,Nc1ncnc2c1ncn2[C@@H]1O[C@H](COCCOCCNc2ncnc3c2ncn3[C@@H]2O[C@H](CO)[C@@H](O)[C@H]2O)[C@@H](O)[C@H]1O
5,13500 nM,Nc1nc(SCc2ccccc2Cl)c2ncn([C@@H]3O[C@H](CO)[C@@H](O)[C@H]3O)c2n1
6,5.5 nM,O=[N+]([O-])c1ccc2c(c1)CN(c1ncnc3c1ncn3[C@@H]1O[C@H](CO)[C@@H](O)[C@H]1O)CC2
7,191000 nM,CC(C)Sc1nc(N)nc2c1ncn2[C@@H]1O[C@H](CO)[C@@H](O)[C@H]1O
8,2.75 nM,Nc1nc(SCc2cc([N+](=O)[O-])ccc2O)c2ncn([C@@H]3O[C@H](CO)[C@@H](O)[C@H]3O)c2n1
9,331 nM,OC[C@H]1O[C@@H](n2cnc3c(CSc4cccc(C(F)(F)F)c4)ncnc32)[C@H](O)[C@@H]1O
10,282 nM,OC[C@H]1O[C@@H](n2cnc3c(CSc4cccc(Cl)c4)ncnc32)[C@H](O)[C@@H]1O
11,91200 nM,OC[C@H]1O[C@@H](n2cnc3c(Sc4ccccc4)ncnc32)[C@H](O)[C@@H]1O
12,1780 nM,OC[C@H]1O[C@@H](n2cnc3c(CSc4ccccc4Cl)ncnc32)[C@H](O)[C@@H]1O
13,12000 nM,CCCCSc1nc(N)nc2c1ncn2[C@@H]1O[C@H](CO)[C@@H](O)[C@H]1O
14,355 nM,OC[C@H]1O[C@@H](n2cnc3c(CSc4ccccc4F)ncnc32)[C@H](O)[C@@H]1O
15,2880 nM,Nc1nc(SCc2cccc(Br)c2)c2ncn([C@@H]3O[C@H](CO)[C@@H](O)[C@H]3O)c2n1
16,339000 nM,COc1ncnc2c1ccn2[C@@H]1O[C@H](CO)[C@@H](O)[C@H]1O
17,229000 nM,Nc1ncnc2c1c(I)cn2[C@@H]1O[C@H](CO)[C@@H](O)[C@H]1O [IODOTUBERCIDIN]

# — ChEMBL document CHEMBL1145549, “Constrained NBMPR analogue synthesis, pharmacophore mapping and 3D-QSAR modeling of equilibrative nucleoside transporter 1 (ENT1) inhibitory activity” (Bioorg Med Chem, 2008)
